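Protocol summary: plate cells (96-well), add compound at 5 concentrations, incubate 48 h, interpolate endpoints linearly. At the GI50, growth is halved.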 Calls of active or inactive are those of the source. Cut-off read from the data, not from the text of the source: active = GI50 up to about 1.1 µM and inactive = higher. Where a SMILES comes first, the peptide text is derived from it. [ ]: non-standard residue; d: D form. The star is where a group is joined. NMeF = CN[C@@H](Cc1ccccc1)C(=O)O; NMeV = CN[C@H](C(=O)O)C(C)C; Boc = CC(C)(C)OC(=O)*; OBn = c1ccc(CO*)cc1

Consider twelve compounds from ChEMBL document CHEMBL1201862, “PubChem BioAssay data set” (2004).

Test systems include MDA-MB-435; UO-31; UACC-257; MDA-N; SK-MEL-5; OVCAR-5; BT-549; MDA-MB-231; KM12; SK-MEL-2; SW-620; RXF 393; ACHN; T47D; HOP-62; K562; SF-268; SF-539; HOP-92.
Holding throughout (experiment): NCI tumour cell line growth inhibition, 48 h

Take `O=C(O)/C=C(/CC(=O)O)C(=O)O`: the GI50 in the assay with MDA-MB-435 is 18.3 µM (inactive); with UO-31 it was 17.2 µM (inactive); in the assay with UACC-257 it was 33.1 µM (inactive); in the assay with MDA-N, 22.1 µM (inactive); with SK-MEL-5, 21 µM (inactive); in the assay with OVCAR-5, 38.4 µM (inactive). Also, the GI50 with BT-549 is 21.1 µM (inactive); in the assay with MDA-MB-231, 21.3 µM (inactive); in the assay with KM12, 23.8 µM (inactive); in the assay on SK-MEL-2 it was 19.5 µM (inactive); in the assay on SW-620, 19 µM (inactive); with RXF 393, 16 µM (inactive). The GI50 in the assay with ACHN is 18.1 µM (inactive); in the assay with T47D it was 20.2 µM (inactive); in the assay on HOP-62, 16.7 µM (inactive); with K562 it was 19.2 µM (inactive); in the assay with SF-268, 19 µM (inactive); with SF-539, 12.3 µM (inactive).

Regarding `CC(C)[C@@H](C(=O)N1CCC[C@H]1C(=O)OCc1ccccc1)N(C)C(=O)[C@H](C(C)C)N(C)C(=O)[C@H](Cc1ccccc1)N(C)C(=O)[C@H](NC(=O)OC(C)(C)C)C(C)C` (Boc-[dV][NMeF][NMeV][NMeV]P-OBn), the GI50 in the assay with MDA-MB-435, with UO-31, with UACC-257, with SK-MEL-5, with HOP-92 and in the assay with OVCAR-5 was > 50 µM (inactive) each time. Moreover, the GI50 with BT-549, with MDA-MB-231, in the assay on KM12, with SK-MEL-2, in the assay on SW-620 and with RXF 393 was > 50 µM (inactive) in each case. The GI50 in the assay with ACHN, in the assay with T47D, with HOP-62, in the assay on K562, in the assay with SF-268 and with SF-539 was > 50 µM (inactive) throughout.

With `CC1(C)N[PH]2(Nc3ccccc3O2)OC1=O`, the GI50 was 16.4 µM (inactive) in the assay with MDA-MB-435; 96.4 µM (inactive) in the assay on UO-31; > 100 µM (inactive) in the assay on UACC-257; 19.2 µM (inactive) with MDA-N; 24.3 µM (inactive) in the assay on SK-MEL-5; > 100 µM (inactive) in the assay with OVCAR-5. Besides, the GI50 in the assay on BT-549 is 18.6 µM (inactive); in the assay on MDA-MB-231, > 100 µM (inactive); in the assay on KM12, > 100 µM (inactive); with SW-620, 42.7 µM (inactive); in the assay with RXF 393, > 100 µM (inactive); in the assay with ACHN, 42.3 µM (inactive). Further, the GI50 with T47D was > 100 µM (inactive); in the assay on HOP-62, > 100 µM (inactive); in the assay on K562 it was 37.9 µM (inactive); in the assay with SF-268 it was > 100 µM (inactive); in the assay with SF-539 it was 66.5 µM (inactive).

On to `O=C(/C(=C\I)c1ccccc1)c1ccccc1`, for which the GI50 in the assay on MDA-MB-435 was 12.6 µM (inactive); with UO-31, 7.78 µM (inactive); with UACC-257, 4.55 µM (inactive); in the assay with SK-MEL-5 it was 17.3 µM (inactive); in the assay with HOP-92, 13.7 µM (inactive); in the assay on OVCAR-5 it was 17.5 µM (inactive). Also, the GI50 with BT-549 is 16.3 µM (inactive); in the assay with MDA-MB-231, 3.94 µM (inactive); in the assay with KM12, 2.71 µM (inactive); in the assay with SK-MEL-2, 7.8 µM (inactive); in the assay on SW-620, 4.57 µM (inactive); in the assay with RXF 393 it was 5.35 µM (inactive). In addition, the GI50 in the assay on ACHN was 13 µM (inactive); in the assay with T47D it was 4.14 µM (inactive); in the assay with HOP-62 it was 4.19 µM (inactive); in the assay on K562 it was 3.31 µM (inactive); with SF-268, 13.9 µM (inactive); in the assay with SF-539, 15.2 µM (inactive).

As for `CC(C)c1ccc2nc3ccc(C(=O)NCCN(C)C)cn3c(=O)c2c1`, the GI50 is 14.6 µM (inactive) in the assay on UO-31; 12.1 µM (inactive) with UACC-257; 16.4 µM (inactive) in the assay on MDA-N; 12.4 µM (inactive) in the assay on SK-MEL-5; 14.7 µM (inactive) in the assay on OVCAR-5; 14.2 µM (inactive) in the assay on BT-549. Moreover, the GI50 is 15 µM (inactive) in the assay on MDA-MB-231; 17.3 µM (inactive) in the assay with KM12; 14.7 µM (inactive) in the assay with SW-620; 27.5 µM (inactive) with ACHN; 19.1 µM (inactive) with T47D; 15.3 µM (inactive) with HOP-62. Further, the figures for the GI50 in the assay on K562, in the assay with SF-268 and with SF-539 were 2.57 µM (inactive), 17.5 µM (inactive) and 14.9 µM (inactive), respectively.

Turning to `Cn1c2ccccc2n2c3ccccc3c(=S)c(C#N)c12`, the GI50 in the assay with MDA-MB-435, in the assay with UO-31, in the assay with UACC-257, with MDA-N, with SK-MEL-5 and in the assay on OVCAR-5 was > 100 µM (inactive) each time. Also, the GI50 in the assay with BT-549, with KM12, in the assay with SK-MEL-2, in the assay with SW-620, in the assay on RXF 393 and with ACHN was > 100 µM (inactive) each time. Also, the GI50 was > 10 µM (inactive) with T47D; 53.1 µM (inactive) with HOP-62; > 100 µM (inactive) with K562; > 100 µM (inactive) in the assay with SF-268; > 100 µM (inactive) with SF-539.

Turning to `O=c1ccn(C2OC(CO)C(O)C2[Se]c2ccccc2)c(=O)[nH]1` (stereo not drawn), the GI50 with MDA-MB-435 is > 100 µM (inactive); in the assay with UO-31, > 100 µM (inactive); in the assay on UACC-257, 2.77 µM (inactive); in the assay on MDA-N, > 100 µM (inactive); with SK-MEL-5 it was > 100 µM (inactive); with HOP-92 it was > 100 µM (inactive). The GI50 with OVCAR-5, with BT-549, with MDA-MB-231, with KM12, in the assay on SK-MEL-2 and in the assay on SW-620 was > 100 µM (inactive) throughout. Also, the GI50 in the assay with ACHN, in the assay with HOP-62, with K562, with SF-268 and with SF-539 was > 100 µM (inactive) each time.

In the case of `O=C1CC[C@@]23CC(=O)O[C@@H]2CCCC3C1` (stereo partly drawn), the GI50 with UO-31, in the assay on UACC-257, with MDA-N, in the assay with SK-MEL-5, with OVCAR-5 and in the assay with BT-549 was > 100 µM (inactive) throughout. The GI50 with MDA-MB-231 is > 100 µM (inactive); in the assay with KM12, > 100 µM (inactive); in the assay with SK-MEL-2, > 100 µM (inactive); with SW-620, > 100 µM (inactive); with RXF 393, 18.5 µM (inactive); in the assay on ACHN, > 100 µM (inactive). Further, the GI50 with T47D, in the assay with HOP-62, with K562, in the assay with SF-268 and in the assay with SF-539 was > 100 µM (inactive) in each case.

Turning to `CC(=O)N1CCN(CCCCN2c3ccccc3Sc3cc(N=[N+]=[N-])ccc32)CC1`, the GI50 in the assay with MDA-MB-435 was 15.6 µM (inactive); in the assay with UO-31, 11.3 µM (inactive); with UACC-257, 24.5 µM (inactive); in the assay on MDA-N, 16.7 µM (inactive); with OVCAR-5 it was 13.7 µM (inactive); in the assay with BT-549, 17.3 µM (inactive). Besides, the GI50 with MDA-MB-231 was 13.8 µM (inactive); in the assay on KM12 it was 13.5 µM (inactive); in the assay with SW-620 it was 15.5 µM (inactive); in the assay on RXF 393, 9.1 µM (inactive); in the assay on ACHN it was 14.9 µM (inactive); in the assay with T47D it was 3.65 µM (inactive). Besides, the GI50 was 14.3 µM (inactive) with HOP-62, 8.65 µM (inactive) in the assay on K562, 18.2 µM (inactive) in the assay on SF-268 and 17.4 µM (inactive) in the assay on SF-539.

On to `O=C1c2cccc3cc([N+](=O)[O-])cc(c23)C(=O)N1CCCN1CCN(CCCNc2ccc3ncn4c5ccccc5c(=O)c2c34)CC1`, for which the GI50 is < 0.005 µM (active) in the assay with MDA-MB-435; < 0.005 µM (active) in the assay on UO-31; < 0.005 µM (active) in the assay with UACC-257; < 0.005 µM (active) in the assay with MDA-N; 0.013 µM (active) in the assay with HOP-92; 0.00867 µM (active) in the assay on OVCAR-5. The GI50 is < 0.005 µM (active) in the assay on BT-549; < 0.005 µM (active) in the assay with MDA-MB-231; < 0.005 µM (active) in the assay on KM12; 0.0191 µM (active) with SK-MEL-2; < 0.005 µM (active) with SW-620; < 0.005 µM (active) in the assay on RXF 393. Also, the GI50 with ACHN, in the assay with HOP-62, in the assay with SF-268 and in the assay on SF-539 was < 0.005 µM (active) in each case.

With `N#Cc1ccc(C(O)C(F)(F)c2nc3ccccc3o2)cc1` (stereo not drawn), the GI50 in the assay on MDA-MB-435 is 44.8 µM (inactive); with UO-31, 30.3 µM (inactive); in the assay with UACC-257 it was 99.8 µM (inactive); with SK-MEL-5, 37.2 µM (inactive); in the assay with HOP-92, 53.3 µM (inactive); in the assay on BT-549 it was 71.4 µM (inactive). Also, the GI50 with MDA-MB-231 is 18.9 µM (inactive); with KM12, 96.2 µM (inactive); with SK-MEL-2, > 100 µM (inactive); in the assay on SW-620, > 100 µM (inactive); in the assay with RXF 393, > 100 µM (inactive); in the assay with ACHN, 83.9 µM (inactive). In addition, the GI50 in the assay on T47D was 37.2 µM (inactive); in the assay with HOP-62, > 100 µM (inactive); in the assay on K562, 18.2 µM (inactive); with SF-268, > 100 µM (inactive); in the assay with SF-539, 43.9 µM (inactive).

Turning to `Cc1ccc(S(=O)(=O)Nn2c(O)c(C#N)c(-c3ccc(Cl)cc3)c(C#N)c2=O)cc1`, the GI50 in the assay on MDA-MB-435, in the assay with UACC-257, in the assay with MDA-N, in the assay on SK-MEL-5, with HOP-92 and in the assay on OVCAR-5 was > 100 µM (inactive) each time. Moreover, the GI50 in the assay on BT-549, in the assay with MDA-MB-231, with KM12, in the assay with SK-MEL-2, in the assay on SW-620 and in the assay on RXF 393 was > 100 µM (inactive) each time. Besides, the GI50 in the assay on ACHN, in the assay on HOP-62, with K562, in the assay on SF-268 and with SF-539 was > 100 µM (inactive) throughout.
